Columns and labels:
Format in all cases: cell-based
[1] = tested on: cell reactive oxygen species (ROSs) in normal human keratinocytes; test: Mitoread AntiOx cROS: cell ROS production after H2O2 stress
Excerpt: The objective of this study is the characterization of the antioxidant property of a Sanicula europea extract by evaluating the parameters of the redox state after induction of an oxidative stress by hydrogen peroxide (H2O2) in primary cultures of normal human keratinocytes. The Mitosafe® technology makes it possible to explore the antioxidant effects of active agents at the mitochondrial level. This technology consists of the integrated study of mitochondrial functions in living cells by multiplexed measurement of parameters such as cell viability, production of cell and mitochondrial oxygen free radicals, evaluation of antioxidant defenses. These tests in 96-well plates are carried out on primary cultures of human epidermal cells. The Mitoread AntiOx cROS methodology consists of the quantification of the antioxidant activity of the ingredients toward cell reactive oxygen species (ROSs) using a fluorescent label. […] After washing, the cells were co-incubated with the antioxidant reference compound, […] Trolox, or the extracts, at concentrations determined to be non-cytotoxic, in the presence of the pro-oxidizing reference compound, 100 μM H2O2. The cell ROS production was immediately recorded for 60 minutes. The fluorescence is recorded every five minutes using a microplate reader (Varioskan-Thermo). […]

[2] = tested on: cell superoxide dismutase (SOD) in normal human keratinocytes; test: Mitoread RedOx c/mtSOD: cell SOD activity after H2O2 stress
Excerpt: (§1) The objective of this study is the characterization of the antioxidant property of a Sanicula europea extract by evaluating the parameters of the redox state after induction of an oxidative stress by hydrogen peroxide (H2O2) in primary cultures of normal human keratinocytes. The Mitosafe® technology makes it possible to explore the antioxidant effects of active agents at the mitochondrial level. This technology consists of the integrated study of mitochondrial functions in living cells by multiplexed measurement of parameters such as cell viability, production of cell and mitochondrial oxygen free radicals, evaluation of antioxidant defenses. These tests in 96-well plates are carried out on primary cultures of human epidermal cells. The Mitoread RedOx c/mtSOD methodology consists of the quantification of the cell and mitochondrial SOD activities. The cells were pre-incubated at 37° C. for 60 minutes with the reference antioxidant, resveratrol at 1 μM, or the active ingredients at the predetermined concentrations. The cells were treated with the reference pro-oxidizing compound, hydrogen peroxide H2O2 at 100 μM for 60 minutes. Immediately after, the cell extracts were prepared and stored at −80° C. The enzymatic activities were measured by means of a fluorometric and enzymatic method using a microplate reader (Varioskan-Thermo). All the extracts were tested in triplicate.

[3] = tested on: total glutathione (GSH+GSSG) in normal human keratinocytes; test: Mitoread RedOx GSHtot: total glutathione level after H2O2 stress
Excerpt: as §1, with “RedOx GSHtot” for “RedOx c/mtSOD”, “the total glutathione level (GSH+GSSG).” for “the cell and mitochondrial SOD activities.”, “resveratrol” for “resveratrol at”, “the extract” for “the active ingredients”, “100 μM,” for “100 μM”, “The total glutathione level was” for “The enzymatic activities were”

[4] = tested on: mitochondrial reactive oxygen species (ROSs) in normal human keratinocytes; test: Mitoread AntiOx mtROS: mitochondrial ROS production after H2O2 stress
Excerpt: The objective of this study is the characterization of the antioxidant property of a Sanicula europea extract by evaluating the parameters of the redox state after induction of an oxidative stress by hydrogen peroxide (H2O2) in primary cultures of normal human keratinocytes. The Mitosafe® technology makes it possible to explore the antioxidant effects of active agents at the mitochondrial level. This technology consists of the integrated study of mitochondrial functions in living cells by multiplexed measurement of parameters such as cell viability, production of cell and mitochondrial oxygen free radicals, evaluation of antioxidant defenses. These tests in 96-well plates are carried out on primary cultures of human epidermal cells. The Mitoread AntiOx mtROS methodology consists of the quantification of the antioxidant activity of the ingredients toward mitochondrial reactive oxygen species (ROSs) using a fluorescent label. The cells were pre-incubated at 37° C. for 60 minutes with the reference antioxidant, resveratrol 1 μM, or the active ingredients at the predetermined concentrations. Next, they were incubated with the fluorescent probe at 37° C. for 30 minutes, as a replacement for the antioxidant compounds. […] The mitochrondrial ROS production was immediately recorded for 60 minutes. The fluorescence is recorded every five minutes using a microplate reader (Varioskan-Thermo). […]

[5] = tested on: mitochondrial superoxide dismutase (SOD) in normal human keratinocytes; test: Mitoread RedOx c/mtSOD: mitochondrial SOD activity after H2O2 stress
Excerpt: as §1

Cc1c(C)c2c(c(C)c1O)CCC(C)(C(=O)O)O2 (stereo not shown) [Trolox] was tested, and the “reduction of the overproduction of cell ROSs induced by H2O2” value ([1]; Trolox at 10 μm, p<0.001) was 1.7 times.
Oc1ccc(C=Cc2cc(O)cc(O)c2)cc1 [resveratrol] was tested, and the “increase in the cell SOD activity in response to H2O2 exposure” value ([2]; 1 μM, p=0.036) was about 40%, the “reduction of the total glutathione level after treatment with H2O2” value ([3]; pre-incubation at 1 μM, p=0.006) was 94% and the “reduction of the overproduction of mitochondrial ROSs induced by H2O2” value ([4]; 1 μM, p=0.013) was about 1.3 times. For the same compound, the “reduction of the activity of the mitochondrial SOD induced by H2O2” value ([5]; 1 μM, p=0.021) was about 66%.
With OO [H2O2, hydrogen peroxide] the “increase of the cell ROS production level compared with the nontreated cells” value ([1]; 100 μM H2O2) was 7.4 times, the “decrease in the cell SOD activity compared with the nontreated cells” value ([2]; H2O2 100 μM, non-significant trend, p=0.075) was about 30% and the “increase in the total glutathione level compared with the nontreated cells” value ([3]; H2O2 at 100 μM, p=0.044) was about 2.9 times. The “increase in mitochondrial production of ROSs relative to the nontreated cells (factor)” value ([4]; 100 μM H2O2) was 9.4 and the “increase in the mitochondrial SOD activity compared with the nontreated cells” value ([5]; H2O2 100 μM, p=0.006) was about 211%.
